In PMC10157890, “Lysine Deacetylase Substrate Selectivity: Distinct Interaction Surfaces Drive Positive and Negative Selection for Residues Following Acetyllysine” (Biochemistry, 2023):

Columns and labels:
full-length human KDAC6 = molecular target: T1, full-length human KDAC6 (Homo sapiens, UniProt Q9UBN7); experiment: Activity of KDAC6 with putative substrate peptides (verification of substrate preferences); type: biochemical; settings: endpoint, 100 μM peptide, buffer also containing 100 mM KCl; for specific activity, KDAC6 with putative substrates: 50–200 nM KDAC, 25 °C, pH 7.6, 15–60 min, average ± SD, SD
T1 construct: A pFastbac1 construct containing full-length human KDAC6 (UniProtKB Q9UBN7) with a C-terminal His6 tag; His6 (C); made in house; host or cells: ExpiSf9 insect cells (baculovirus)
T1 sequence (Q9UBN7 1-1215): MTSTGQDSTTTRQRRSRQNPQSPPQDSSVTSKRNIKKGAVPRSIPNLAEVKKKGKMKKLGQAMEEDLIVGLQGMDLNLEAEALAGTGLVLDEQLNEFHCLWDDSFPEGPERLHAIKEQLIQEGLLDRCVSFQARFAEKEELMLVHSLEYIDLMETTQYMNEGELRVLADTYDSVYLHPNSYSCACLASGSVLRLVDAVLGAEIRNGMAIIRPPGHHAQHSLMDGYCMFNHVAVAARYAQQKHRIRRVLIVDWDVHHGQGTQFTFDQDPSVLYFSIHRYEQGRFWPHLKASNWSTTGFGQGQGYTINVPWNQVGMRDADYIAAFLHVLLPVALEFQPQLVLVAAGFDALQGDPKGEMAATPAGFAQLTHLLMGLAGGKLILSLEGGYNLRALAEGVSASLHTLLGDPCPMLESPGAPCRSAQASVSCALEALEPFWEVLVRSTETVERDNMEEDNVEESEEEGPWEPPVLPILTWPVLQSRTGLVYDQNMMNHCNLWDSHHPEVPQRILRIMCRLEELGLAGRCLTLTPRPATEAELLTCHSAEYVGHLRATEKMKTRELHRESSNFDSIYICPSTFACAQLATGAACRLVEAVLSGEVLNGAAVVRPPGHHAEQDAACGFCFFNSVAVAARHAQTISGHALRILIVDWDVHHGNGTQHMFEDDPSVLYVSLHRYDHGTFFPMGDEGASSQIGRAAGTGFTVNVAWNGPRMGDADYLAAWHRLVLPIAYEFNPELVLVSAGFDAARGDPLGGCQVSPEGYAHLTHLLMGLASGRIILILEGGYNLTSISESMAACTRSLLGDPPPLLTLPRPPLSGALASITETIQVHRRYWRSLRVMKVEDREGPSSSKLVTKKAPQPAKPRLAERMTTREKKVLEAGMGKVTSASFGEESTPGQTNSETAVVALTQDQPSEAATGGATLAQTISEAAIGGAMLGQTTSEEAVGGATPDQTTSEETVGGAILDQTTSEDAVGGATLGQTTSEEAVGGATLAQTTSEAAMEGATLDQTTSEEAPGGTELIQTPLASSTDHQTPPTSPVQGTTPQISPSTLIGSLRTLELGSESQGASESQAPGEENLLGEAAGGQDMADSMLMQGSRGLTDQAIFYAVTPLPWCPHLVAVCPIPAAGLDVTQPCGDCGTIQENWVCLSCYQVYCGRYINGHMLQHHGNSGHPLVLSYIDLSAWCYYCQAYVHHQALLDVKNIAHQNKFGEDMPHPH
Procedure: (§1) Peptide substrates were synthesized to >95% purity (GenScript) with N-terminal acetylation and C-terminal amidation. For endpoint experiments, 100 μM peptide substrates were reacted with 50–200 nM KDAC at 25 °C at pH 7.6 for 15–60 min. Deacetylation was measured using a fluorescamine-based assay that was previously described in detail.[18] Reported raw activity for each enzyme–substrate pair is the average and standard deviation for n ≥ 4 unless otherwise noted. Normalized activity was calculated by defining the activity of each KDAC with the FRK^acWR peptide equal to 1. Statistical significance was determined by calculating p values using two-tailed t-tests, assuming similar variance. The significance threshold was set at p ≤ 0.01 with the Bonferroni correction for multiple testing. Kinetic parameters were determined for a subset of enzyme–substrate pairs. In these experiments, 50–200 nM KDAC was reacted with ≥5 substrate concentrations from 10 to 2500 nM and ≥3 timepoints at intervals of 3–20 min were collected for each substrate concentration. Deacetylation was measured using the same method as the endpoint experiments, and KM and kcat were calculated from the observed activity of each reaction as previously described.[18] Activity assays with peptides for verification of substrate preferences were performed as for endpoint experiments, except in a buffer also containing 100 mM KCl. Statistical analysis of the correlation of the presence of particular substrate residues with activity was performed using Fisher’s exact test with a significance threshold of p ≤ 0.05.
In contrast with the peptides tested thus far, which were all derivatives of a single substrate, these panels consisted of peptides derived from human proteins in which the lysine residue is known to be acetylated in cells.[3],[5],[42],[50]−[72] For each enzyme, peptides were included either because they contained an acetyllysine that has been identified as a putative substrate of the KDAC from published cellular studies and/or because the peptide contained a residue that appeared to drive KDAC activity in our analysis. For KDAC6, we observed that of the set of peptides that were tested, six contained tryptophan or tyrosine directly after the acetyllysine. Remarkably, all of these peptides appeared in the top seven most reactive substrates tested (Table 2). Assuming that phenylalanine would behave similarly to tryptophan and tyrosine, we determined that there was a statistically significant correlation between whether or not a peptide was deacetylated by KDAC6 and the presence of tyrosine, tryptophan, or phenylalanine in the +1 position (p = 0.011). […] Thus, our conclusion that the presence of these aromatic residues in the +1 position relative to the acetyllysine is a major factor promoting KDAC6 activity has predictive utility and provides some understanding of the underlying mechanistic basis.

Full-length human KDAC8 = molecular target: T2, Full-length human KDAC8 (Homo sapiens, UniProt Q9BY41); experiment: Activity of KDAC8 with putative substrate peptides (verification of substrate preferences); type: biochemical; settings: endpoint, 100 μM peptide, buffer also containing 100 mM KCl; for specific activity, KDAC8 with putative substrates: 50–200 nM KDAC, 25 °C, pH 7.6, 15–60 min, average ± SD, SD; for specific activity, KDAC8 with putative substrates (no activity above limit): limit of reliable detection 0.0004 s^–1
T2 construct: Full-length human KDAC8 (UniProtKB Q9BY41) was recombinantly expressed fused to a C-terminal His6 tag; TEV protease cleavage site (C); His6 (C); made in house; host or cells: Escherichia coli
T2 sequence (Q9BY41 1-377): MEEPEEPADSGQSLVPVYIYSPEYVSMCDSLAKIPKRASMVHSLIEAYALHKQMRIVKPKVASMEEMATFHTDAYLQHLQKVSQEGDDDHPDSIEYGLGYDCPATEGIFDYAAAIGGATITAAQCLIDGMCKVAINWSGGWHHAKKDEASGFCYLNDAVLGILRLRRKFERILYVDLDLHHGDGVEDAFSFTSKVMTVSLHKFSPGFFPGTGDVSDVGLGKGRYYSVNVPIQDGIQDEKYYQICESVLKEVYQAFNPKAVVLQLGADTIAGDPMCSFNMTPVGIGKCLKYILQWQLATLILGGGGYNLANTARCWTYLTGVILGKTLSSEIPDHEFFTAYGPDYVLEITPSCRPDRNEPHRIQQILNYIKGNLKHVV
Procedure: as §1
We performed a similar experiment for KDAC8, this time using substrates that have been described as potential KDAC8 substrates from cell-based studies or which contained residues in the +1 and/or +2 positions that were identified to enhance activity of KDAC8. […] In addition, we also considered phenylalanine, as we did for KDAC6. Here, we looked at the correlation between peptides having any of these features and activity. While the result was less striking than for KDAC6, there was still a positive correlation between the presence of the identified residues and activity (Table 3; p = 0.048). Although we have identified only a portion of the interactions that likely contribute to substrate selectivity for these enzymes, these interactions correlate with a statistically significant increase in activity with peptides from potential biological substrates in an unbiased background of residues in other positions.

| specific activity, KDAC6 with putative substrates (full-length human KDAC6) [s^–1] | specific activity, KDAC8 with putative substrates (Full-length human KDAC8) [s^–1] | Substance | specific activity, KDAC8 with putative substrates (no activity above limit) (Full-length human KDAC8) | specific activity, KDAC6 with putative substrates (no activity above limit) (full-length human KDAC6; limit of reliable detection 0.0013 s^–1) |
| --- | --- | --- | --- | --- |
| 0.10 ± 0.04 | 0.0011 ± 0.0006 | TGNK^acYVP [acetyllysine peptide from tubulin β-3 chain (Q13509)] |  |  |
| 0.024 ± 0.005 |  | LSGK^acEIN [acetyllysine peptide from serine/arginine-rich splicing factor 5 (Q13243)] | – (– indicates no activity above the limit of reliable detection (0.0004 s^–1)) |  |
| 0.024 ± 0.013 |  | SHLK^acAHL [acetyllysine peptide from transcription factor Sp7 (Q8TDD2)] | – (– indicates no activity above the limit of reliable detection (0.0004 s^–1)) |  |

The next lines start with the substance.

| Substance | specific activity, KDAC6 with putative substrates (full-length human KDAC6) [s^–1] | specific activity, KDAC8 with putative substrates (Full-length human KDAC8) [s^–1] | specific activity, KDAC8 with putative substrates (no activity above limit) (Full-length human KDAC8) | specific activity, KDAC6 with putative substrates (no activity above limit) (full-length human KDAC6; limit of reliable detection 0.0013 s^–1) |
| --- | --- | --- | --- | --- |
| QLSK^acWP [acetyllysine peptide from forkhead box protein O3 (O43524)] | 0.14 ± 0.03 | 0.020 ± 0.006 |  |  |
| GVGK^acYIN [acetyllysine peptide from RING-type E3 ubiquitin-protein ligase PPIL2 (Q13356)] | 0.055 ± 0.024 |  | – (– indicates no activity above the limit of reliable detection (0.0004 s^–1)) |  |
| GTAK^acSVT [acetyllysine peptide from cellular tumor antigen p53 (P04637)] |  |  | – (– indicates no activity above the limit of reliable detection (0.0004 s^–1)) | – (– indicates no activity above the limit of reliable detection (0.0013 s^–1)) |
| AFGK^acYCR | 0.20 ± 0.09 | 0.0029 ± 0.0004 |  |  |
| GRAK^acYWL [acetyllysine peptide from E3 SUMO-protein ligase RanBP2 (P49792)] | 0.100 ± 0.009 | 0.007 ± 0.003 |  |  |
